“And” between values parts separate entries of the source, which are not always exact repeats. Equal entries are not always repeated.
Experiments:
Format in all cases: cell-based
HIV-1-GFP [1] = assay: microbe, parasite or virus in culture
Description: Cells were then infected with HIV-1-GFP by spinoculation at 800 × g for 90 min in the presence of 1 μg/mL polybrene, and further incubated at 37 °C in 5% CO2 for 72 h. […] Cells were then infected with HIV-1-GFP by spinoculation at 800 × g for 90 min in the presence of 1 μg/mL polybrene, and further incubated at 37 °C in 5% CO2 for 72 h. Non-dividing U937 and THP-1 (PMA^+) cells (6 × 10^5 cells/mL) were differentiated by addition of 100 nM PMA (PMA^+) for 48 h and treated with increasing concentrations of nucleoside analogues as described above. Cells were then infected with HIV-1-GFP in the presence of 1 μg/mL polybrene and further incubated at 37 °C in 5% CO2 for 72 h. The percentage of GFP^+cells was determined by one-colour flow cytometry using a Fortessa X20 analyser (BD Biosciences) and the data analysed using the FlowJo software suite.
(§1) Non-ambiguous values were subjected to a replicate test to calculate confidence intervals of 95% (95% CI). CC50 and EC50 values were determined for at least two independent experiments for each nucleoside analogue and a selectivity index (SI) also calculated, (SI = CC50/EC50). EC50 values for each replicate were used to perform an unpaired two-tailed t-test to determine significant differences between U937 cells expressing SAMHD1 wt or HD206-7AA mutant and THP-1 cells expressing Vpx or untransduced cells. P values of <0.005 were considered statistically significant.

HIV-1-GFP [2] = assay: Anti-HIV-1 activity in U937 cells transduced with wt SAMHD1 or HD206-7AA mutant
Description: Antiviral assays were further performed in monocytoid cells transduced with YFP-expressing VLPs containing WT SAMHD1, HD206-7AA or Vpx. Briefly, U937 cells (6 × 10^5 cells/mL) were transduced with WT SAMHD1-YFP or HD206-7AA-YFP VLPs by spinoculation at 800 × g for 90 min in the presence of 1 μg/mL polybrene. Similarly, THP-1 cells (6 × 10^5 cells/mL) were transduced with Vpx-YFP VLPs by spinoculation at 800 × g for 90 min in the presence of 1 μg/mL polybrene. Cells were incubated at 37 °C in 5% CO2 and after 72 h, PMA^+ cells (6 × 10^5 cells/mL) were treated with 100 nM PMA and PMA^− cells (7.5 × 10^4 cells/mL) were left untreated. Cells were then incubated at 37 °C in 5% CO2 for 48 h. Nucleoside analogues were added at increasing concentrations (0–200 μM; except CFB, 0–1.6 μM) and cells were further incubated for 48 h. PMA^− cells were then infected with HIV-1-GFP by spinoculation at 800 × g for 90 min in the presence of 1 μg/mL polybrene, PMA^+ cells were infected with HIV-1-GFP in the presence of 1 μg/mL polybrene only. Cells were incubated for 72 h at 37 °C in 5% CO2 and then analysed by two-colour flow cytometry using a Fortessa X20 analyser (BD Biosciences). Data were analysed using the FlowJo software suite.
as §1, with “The cytotoxic concentration of nucleoside analogue that inhibits cell viability by 50% (CC50) and the effective concentration of nucleoside analogue that inhibits infection of cells by 50% (EC50) were calculated for each independent experiment by non-linear regression using GraphPad Prism v6.00 for Windows (GraphPad Software, San Diego, CA). Non-ambiguous” for “Non-ambiguous”

in vitro = settings: human
Description: H9, Jurkat and undifferentiated U937 and THP-1 (PMA^−) cells (6 × 10^5 cells/mL) were treated with increasing concentrations of nucleoside analogues (0–200 μM; except CFB, 0–1.6 μM) and incubated at 37 °C in 5% CO2 for 48 h. Medium was then replaced and cells were further incubated for 72 h. Non-dividing U937 and THP-1 (PMA^+) cells (6 × 10^5 cells/mL) were differentiated by addition of 100 nM phorbol-12-myristate-13-acetate (PMA^+) for 48 h and then treated with increasing concentrations of nucleoside analogues as described above. The percentage of live cells was determined by flow cytometry using Live/Dead fixable blue-fluorescent dyes (Invitrogen) and a Fortessa X20 analyser (BD Biosciences). Data were analysed using the FlowJo software suite.
as §1, with “The cytotoxic concentration of nucleoside analogue that inhibits cell viability by 50% (CC50) and the effective concentration of nucleoside analogue that inhibits infection of cells by 50% (EC50) were calculated for each independent experiment by non-linear regression using GraphPad Prism v6.00 for Windows (GraphPad Software, San Diego, CA). Non-ambiguous” for “Non-ambiguous”

[3] = Human immunodeficiency virus 1, H9, read-out: EC50 anti-HIV-1, H9 cells
[4] = Human immunodeficiency virus 1, Jurkat, read-out: EC50 anti-HIV-1, Jurkat cells
[5] = Human immunodeficiency virus 1, U-937, read-out: EC50 [95% CI], U937 PMA+, HD206/7AA+ population
[6] = Human immunodeficiency virus 1, U-937, read-out: EC50 [95% CI], U937 PMA+, SAMHD1+ population
[7] = Human immunodeficiency virus 1, U-937, read-out: EC50 [95% CI], U937 PMA−, HD206/7AA+ population
[8] = Human immunodeficiency virus 1, U-937, read-out: EC50 [95% CI], U937 PMA−, SAMHD1+ population
[9] = U937 PMA−, HD206/7AA+ population

Row | Structure (SMILES) | EC50 (HIV-1-GFP [1]; [3]) [nM] | EC50 (HIV-1-GFP [1]; [4]) [nM] | EC50 (HIV-1-GFP [2]; [5]) [nM] | EC50 (HIV-1-GFP [2]; [6]) [nM] | EC50 (HIV-1-GFP [2]; [7]) [nM] | EC50 (HIV-1-GFP [2]; [8]) [nM] | EC50 [95% CI] (HIV-1-GFP [2]; [9]) | EC50 [95% CI] (HIV-1-GFP [2]; U937 PMA−, SAMHD1+ population) | EC50 anti-HIV-1 (HIV-1-GFP [1]; H9 cells) | SI, selectivity index CC50/EC50 (HIV-1-GFP [1]; H9 cells) | EC50 anti-HIV-1 (HIV-1-GFP [1]; Jurkat cells) | Fold (EC50 HD206/7AA vs SAMHD1) (HIV-1-GFP [2]; U937 PMA+) [fold] | Fold (EC50 HD206/7AA vs SAMHD1) (HIV-1-GFP [2]; U937 PMA−) [fold] | SI, selectivity index CC50/EC50 (HIV-1-GFP [1]; Jurkat cells) | EC50 (HIV-1-GFP [1]; read-out: EC50 anti-HIV-1, H9 cells) [nM] | EC50 (HIV-1-GFP [1]; read-out: EC50 anti-HIV-1, Jurkat cells) [nM] | CC50 at 48 h (in vitro) [nM]
1 | Nc1nc(O)c2ncn(COC(CO)CO)c2n1 [GCV, 2′-Nor-2′-deoxyguanosine] | > 200000 | > 200000 | > 200000 | 876 | > 200000 | > 200000 | no anti-HIV-1 activity | no anti-HIV-1 activity |  |  |  |  |  |  |  |  | 
2 | Cc1ccnc2c1NC(=O)c1cccnc1N2C1CC1 [NVP, Nevirapine] | 158 | 486 | 145 | 97 | 124 | 112 |  |  | nanomolar concentrations | > 1266 | nanomolar concentrations | 1 | 1 |  |  |  | 
3 | Nc1nc2c(ncn2COCCO)c(=O)[nH]1 [ACV, Acycloguanosine] | > 200000 | > 200000 | 50900 | 652 | > 200000 | > 200000 | no anti-HIV-1 activity | no anti-HIV-1 activity |  |  |  | 78 |  |  |  |  | 
4 | Cc1cn([C@H]2C=C[C@@H](CO)O2)c(=O)[nH]c1=O [d4T, 2′,3′-didehydro-2′,3′-dideoxythymidine] | < 10000 | < 10000 | 5820 | 528 | 2710 | 801 |  |  |  | > 36 and > 30 |  | 11 | 3 | > 30 | 5570 | 6560 | > 200000
5 | Cc1nnc(C(=O)NC(C)(C)c2nc(C(=O)NCc3ccc(F)cc3)c(O)c(=O)n2C)o1 [RAL, Raltegravir] | 2 | 4 | 75 | 70 | 12 | 11 |  |  | nanomolar concentrations | > 100000 | nanomolar concentrations | 1 | 1 |  |  |  | 
